Type in all cases: cell-based, human
The subject of one test is A549 cells. Put plainly: Dynamic monitoring of drug interaction with target cells by RT-CES. The method, then:
Drug Treatment and Cytotoxicity Assessment. […] The indicated cell numbers were seeded per chamber of ACEA's 16X or 96X E-Plate (cartridge for monitoring cell-substrate impedance) in 100 μL final volume.
In order to observe the kinetics of drug interaction with target cells, A549 non-small lung cancer cells were seeded in ACEA 96X E-Plate™ and continuously monitored until the cells reached the log growth phase at which point different concentrations of paclitaxel were added to the cells at the indicated final concentration. […] While it remains to be determined if this phenomenon is due to metabolism and inactivation of paclitaxel or due to the emergence of paclitaxel-resistant subpopulation, this experiment clearly exemplifies the tremendous advantage of real-time measurement which is offered by the RT-CES system and allows the user to the opportunity to observe and assess the entire history of drug interaction with the target cells which provides further information in addition to cell viability or cytotoxicity. The phenomenon observed in FIG. 20A would've been easily missed by traditional single-point assays such as MTT.
Yet another major advantage of using the RT-CES system to continually monitor the interaction of drugs with target cells is that the user can obtain insight into the mechanism of action of the drug of interest. […] The cells were treated with either DMSO as the vehicle control or with 100 μM Olomoucine which is a CDK inhibitor and induces cell cycle arrest either at G1→S transition or at the G2→M transition, depending on the cell line. […] The control cells treated with DMSO continue to proliferate until they reach confluence, at which time they are contact inhibited and the Cell Index recording levels off. […]
(§1) Inhibition of NK-mediated cytolysis of target cells by agents which block the signaling pathways leading to cytotoxicity. […] We calculated percent inhibition of cytolysis for both inhibitors at different time points after NK addition. […]

In test [1] the test system is NK-92-mediated cytolysis of A549 cells. Description: Inhibition of NK-92-mediated cytolysis of target cells by signaling pathway inhibitors (RT-CES). The method, then:
(FIG. 31A) A549 cells were seeded in the chambers of E-PLATES. Twenty four hours after seeding NK-cells at a density of 16:1 (E/T ratio) were pre-incubated with the different concentrations of the MEK inhibitor PD 98059 for thirty minutes and then added to A549 cells at the indicated time point (arrow). The viability of A549 cells were continually monitored using the RT-CES system. (FIG. 31B) The extent of NK-92 mediated cytolystic activity in the presence of MEK inhibitor was calculated at the indicated times post-NK addition as described in materials and methods section. (FIG. 31C) The effect of PI3 Kinase inhibitor Wortmannin on NK-92 mediated cytolysis of A549 cells. The cells were treated with the inhibitor as described in (FIG. 31A). (FIG. 31D) Percent cytolytic activity of NK-92 cells was calculated at the end of the experiment described in (FIG. 31C).
Cytolytic analysis. Target cells were seeded into the chambers of either 16-chamber or 96-chamber E-plate in 100 μL of media. Cell growth was dynamically monitored using the RT-CES system for a period of 24-34 hours, depending on the experiment until they reached log growth phase and formed a monolayer. […]
as §1

A further test deals with H460 cells. Description: Time-dependent cell index of cancer cells treated with anticancer drug (cell-substrate impedance). The procedure: In this experiment, H460 cells were introduced into chambers of a 16X cell-substrate impedance monitoring cartridge (16X E-Plate). The cartridge was positioned on a cartridge station that was located in an incubator maintaining conditions of 37° C. and 5% CO2. The cells were cultured and treated at their exponential growth phase with different concentrations of paclitaxel. The dynamic response of the cells to different doses of paclitaxel was monitored by monitoring cell-substrate impedance in real time every 15 minutes for 50 hours after treatment using a cell-substrate impedance monitoring system. The cell-substrate impedance monitoring system calculated the cell index at each time point monitored and plotted the cell index as a function of time. […] However, the cell index reached a minimum at a time dependent on the compound concentration, between about 15 hours and 20 hours after compound addition. After that point, there was a gradual increase in cell index in these chambers.
H460 cells were introduced into chambers of a 16X cell-substrate impedance monitoring cartridge (16X E-Plate). […] The dynamic response of the cells to different doses of AC101103 was monitored by measuring impedance in real time every 30 minutes for about 20 hours after treatment on the cell-substrate monitoring system. […]

The mark [2] stands for this setting: A549 cells, highest concentration.

From patent US20210364494A1, “CELL-SUBSTRATE IMPEDANCE MONITORING OF CANCER CELLS OF DIFFERENT LINEAGE, ORIGIN, OR STAGE” (ACEA BIOSCIENCES, INC., priority 2017, published 2021) come the findings set out here.

`COc1cccc(-c2cc(=O)c3ccccc3o2)c1N` [PD98059]: the “effect of inhibitor alone on target cell baseline” value in the test with A549 cells (A549 target cells incubated with inhibitor alone, no NK cells) was “minimal effect on the baseline”. For the same molecule, in test [1] (NK-92 pre-incubated with inhibitor, then added to A549 target cells), the “inhibition of NK-92-mediated cytolysis” value is recorded as “dose-dependently inhibited NK-92-mediated cytolysis of A549 cells”. The “time dependence of percent inhibition of cytolysis” value in test [1] (different time points after NK addition) is recorded as “consistent inhibition of cytolysis at all the indicated time points”.

On to `CC(=O)O[C@H]1C(=O)[C@@]2(C)[C@H]([C@H](OC(=O)c3ccccc3)[C@]3(O)C[C@H](OC(=O)[C@H](O)[C@@H](NC(=O)c4ccccc4)c4ccccc4)C(C)=C1C3(C)C)[C@]1(OC(C)=O)CO[C@@H]1C[C@@H]2O` [paclitaxel], for which, in the test on A549 cells (setting [2]), the “initial effect on Cell Index (with Annexin V staining)” value is on record as “initially induces a cytotoxic effect which is mainly due to cell death”; the “later course of Cell Index after the initial effect” value was “recover from the initial cytotoxic effect of the drug and start to re-proliferate”. Further, in the test with H460 cells (33 nanomolar), the “time over which cell index exhibited a near-constant value” is reported as “about 15 hours”. The “cell index response after compound addition” value in the test on H460 cells (concentrations between 67 nanomolar and 500 nanomolar) was “gradual decrease in cell index”.
